Where a name gives a salt, the structure may show the parent alone.
Target: T1, EGFR (Homo sapiens, UniProt P00533)
T1 construct: A431 […] cell lysate is stored at −80° C; host or cells: A431 cell lysate
Experiment: Assay for modulation of EGFR activity (ELISA)
Assay type: biochemical
Settings: for IC50: read-out: bio EGFR IC50
Description: Using the following reagents, supplies, and method, the ability of compounds of the invention to modulate the in vitro activity of EGFR can be readily determined in an ELISA.
A431 […] cell lysate is stored at −80° C.
ATP/MnCl2 phosphorylation mix is prepared by adding 300 μL of 1.0 mM ATP and […] of 1M MnCl2 to 9.2 mL of dH2O and mixing. Ten mL of phosphorylation mix is enough for about 6 assay plates. Note that the mixture should be made fresh and kept on ice immediately before use, and that although the preferred ATP is fresh from powder stock, any remaining stock solution of ATP may be frozen at −20° C. in small aliquots to be used at a later time.
Coat Corning 96 well ELISA plates with 0.5 μg per well with SUMO1 in a volume of 100 μL PBS overnight, at 4° C. Remove unbound SUMO1 from wells by inverting plate to remove liquid. Wash 1× with distilled H2O by filling wells. Pat the plate on a paper towel to remove excess liquid.
Add 150 μL of Blocking Buffer to each well. Incubate for 30 minutes at room temperature, with shaking. Wash plate 3× with deionized water, then once with TBST. Pat plate on a paper towel to remove excess liquid and bubbles.
Dilute lysate in PBS (7 μg lysate/[…]) and add 100 μL of diluted lysate to each well. Shake at room temperature for 60 minutes. Wash 1× with distilled H2O by filling wells. Pat the plate on a paper towel to remove excess liquid.
Add 120 μL TBST to ELISA plate containing captured EGFR.
Dilute drugs/extracts 1:10 (unless specified otherwise) in TBST in 96-well polypropylene plates. (i.e., 10 μL compound+90 μL TBST). Add 13.5 μL diluted drugs/extracts to ELISA plate. […] Incubate for 30 minutes while shaking at room temperature.
Approximately 150 μL final volume in well with 3 uM ATP/5 mM MnCl2 final concentration in well. Incubate 5 minutes while shaking. Note that this is a timed event. It is critical that ATP/MnCl2 phosphorylates the receptor for only 5 minutes. It is best to add the ATP/MnCl2 with an automated 96 place pipettor workstation, then 5 minutes later stop the reaction with EDTA using the same workstation. Alternatively, addition can be performed using a 12 channel pipettor 1 row at a time, leaving 20 seconds between each row so that the reaction may be stopped with EDTA exactly 5 minutes later (this depends on the number of plates being phosphorylated in one batch). Shake between each addition.
[…] This is done using either the same work station as above, or the same timing method employed with the 12 channel pipettor. After the EDTA has been added, shake for 1 minute. Wash 4× with deionized water, twice with TBST.
Add 100 μL per well of anti-phosphotyrosine (1:3000 dilution in TBST). Incubate 30-45 minutes at room temperature, with shaking. Wash 1× with distilled H2O by filling wells. Pat the plate on a paper towel to remove excess liquid.
Incubate 30 minutes at room temperature, with shaking. Wash 1× with distilled H2O by filling wells. Pat the plate on a paper towel to remove excess liquid.
Add 100 μL of ABTS/H2O2 solution to each well. Incubate 5 to 10 minutes while shaking. Remove any bubbles. If necessary stop reaction with the addition of 100 μL of 0.2M HCl per well.
Read assay on Dynatech MR7000 ELISA reader.

T1 sequence (P00533 25-1210): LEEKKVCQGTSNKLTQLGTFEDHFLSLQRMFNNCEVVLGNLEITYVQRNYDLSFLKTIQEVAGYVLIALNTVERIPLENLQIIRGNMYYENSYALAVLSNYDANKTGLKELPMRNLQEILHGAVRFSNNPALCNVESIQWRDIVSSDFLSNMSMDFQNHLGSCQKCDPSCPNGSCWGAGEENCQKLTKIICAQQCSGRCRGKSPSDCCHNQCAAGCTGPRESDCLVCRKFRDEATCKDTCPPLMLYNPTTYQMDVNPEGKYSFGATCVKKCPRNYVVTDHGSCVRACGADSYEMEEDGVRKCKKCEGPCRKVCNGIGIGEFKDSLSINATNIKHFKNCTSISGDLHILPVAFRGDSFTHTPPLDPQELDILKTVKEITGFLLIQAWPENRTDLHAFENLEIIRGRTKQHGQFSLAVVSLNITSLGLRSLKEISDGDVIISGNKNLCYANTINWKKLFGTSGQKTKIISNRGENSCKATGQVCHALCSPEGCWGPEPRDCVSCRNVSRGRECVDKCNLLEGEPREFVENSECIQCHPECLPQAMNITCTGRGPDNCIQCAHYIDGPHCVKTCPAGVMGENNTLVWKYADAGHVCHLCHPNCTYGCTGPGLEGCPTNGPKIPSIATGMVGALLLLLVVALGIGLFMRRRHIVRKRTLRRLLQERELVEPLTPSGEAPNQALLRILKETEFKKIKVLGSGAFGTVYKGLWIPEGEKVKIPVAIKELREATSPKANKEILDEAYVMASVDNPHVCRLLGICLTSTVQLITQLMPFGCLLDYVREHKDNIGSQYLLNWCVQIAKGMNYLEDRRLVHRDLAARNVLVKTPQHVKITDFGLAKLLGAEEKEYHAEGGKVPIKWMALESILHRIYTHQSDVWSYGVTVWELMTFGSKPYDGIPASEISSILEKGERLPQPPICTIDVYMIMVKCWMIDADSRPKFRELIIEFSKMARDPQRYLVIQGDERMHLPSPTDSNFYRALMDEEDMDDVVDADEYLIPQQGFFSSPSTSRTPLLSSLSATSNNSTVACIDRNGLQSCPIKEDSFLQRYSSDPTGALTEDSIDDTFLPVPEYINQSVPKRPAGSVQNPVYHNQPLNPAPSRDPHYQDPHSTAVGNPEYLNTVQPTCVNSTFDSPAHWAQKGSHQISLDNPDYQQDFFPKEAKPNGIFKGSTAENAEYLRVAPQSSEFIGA

IC50 [nM]	inhibition of EGFR (in words) (hydrochloride salt)	Structure (SMILES)
510	–	Cc1cc(C(=O)NCCN2CCOCC2)[nH]c1C=C1C(=O)Nc2nccc(Nc3ccc(F)c(Cl)c3)c21 [Formula 3, 5-[4-(3-CHLORO-4-FLUORO-PHENYLAMINO)-2-OXO-1,2-DIHYDRO-PYRROLO[2,3-B]PYRIDIN-3-YLIDENEMETHYL]-4-METHYL-1H-PYRROLE-2-CARBOXYLIC ACID (2-MORPHOLIN-4-YL-ETHYL)-AMIDE]
60	–	Cc1nc[nH]c1C=C1C(=O)Nc2ncnc(Nc3ccc(F)c(Cl)c3)c21 [Formula 8]
40	–	Cc1cc(C)c(C=C2C(=O)Nc3ncnc(Nc4ccc(F)c(Cl)c4)c32)[nH]1 [Formula 9]
> 20000	–	Cc1cc(C(=O)NCCN2CCOCC2)[nH]c1C=C1C(=O)Nc2ncnc(N3CCN(C)CC3)c21 [Formula 10, 4-METHYL-5-[4-(4-METHYL-PIPERAZIN-1-YL)-6-OXO-6,7-DIHYDRO-PYRROLO[2,3-D]PYRIMIDIN-5-YLIDENEMETHYL]-1H-PYRROLE-2-CARBOXYLIC ACID (2-MORPHOLIN-4-YL-ETHYL)-AMIDE]
> 20000	–	Cc1nc[nH]c1C=C1C(=O)Nc2ncnc(N3CCOCC3)c21 [Formula 14]
20	–	O=C1Nc2ncnc(Nc3ccc(F)c(Cl)c3)c2C1=Cc1ccc(C(=O)NCCN2CCOCC2)[nH]1 [Formula 15, 5-[4-(3-CHLORO-4-FLUORO-PHENYLAMINO)-6-OXO-6,7-DIHYDRO-PYRROLO[2,3-D]PYRIMIDIN-5-YLIDENEMETHYL]-1H-PYRROLE-2-CARBOXYLIC ACID (2-MORPHOLIN-4-YL-ETHYL)-AMIDE]
20	–	C#Cc1cccc(Nc2ncnc3c2C(=Cc2[nH]c(C(=O)NCCN4CCOCC4)cc2C)C(=O)N3)c1 [Formula 17, 5-[4-(3-ETHYNYL-PHENYLAMINO)-6-OXO-6,7-DIHYDRO-PYRROLO[2,3-D]PYRIMIDIN-5-YLIDENEMETHYL]-4-METHYL-1H-PYRROLE-2-CARBOXYLIC ACID (2-MORPHOLIN-4-YL-ETHYL)-AMIDE]
240	–	Cc1cc(C=C2C(=O)Nc3ncnc(Nc4ccc(F)c(Cl)c4)c32)[nH]c1C(=O)N1CCOCC1 [Formula 37]

The next lines start with the compound.

Structure (SMILES)	IC50 [nM]	inhibition of EGFR (in words) (hydrochloride salt)
O=C1Nc2ncnc(N3CCCCC3)c2C1=Cc1ccc(C(=O)NCCN2CCOCC2)[nH]1 [Formula 5, 5-(6-OXO-4-PIPERIDIN-1-YL-6,7-DIHYDRO-PYRROLO[2,3-D]PYRIMIDIN-5-YLIDENEMETHYL)-1H-PYRROLE-2-CARBOXYLIC ACID (2-MORPHOLIN-4-YL-ETHYL)-AMIDE]	> 20000	–
Cc1cc(C(=O)NCCN2CCOCC2)[nH]c1C=C1C(=O)Nc2ncnc(Nc3ccc4c(ccn4Cc4ccccc4)c3)c21.Cl [Formula 6, 5-[4-(1-BENZYL-1H-INDOL-5-YLAMINO)-6-OXO-6,7-DIHYDRO-PYRROLO[2,3-D]PYRIMIDIN-5-YLIDENEMETHYL]-4-METHYL-1H-PYRROLE-2-CARBOXYLIC ACID (2-MORPHOLIN-4-YL-ETHYL)-AMIDE HYDROCHLORIDE]	1	inhibits EGFR at very low concentrations
Cc1[nH]c(C=C2C(=O)Nc3ncnc(Nc4ccc(F)c(Cl)c4)c32)c(C)c1CCCN1CCOCC1 [Formula 7, 4-(3-CHLORO-4-FLUORO-PHENYLAMINO)-5-[3,5-DIMETHYL-4-(3-MORPHOLIN-4-YL-PROPYL)-1H-PYRROL-2-YLMETHYLENE]-5,7-DIHYDRO-PYRROLO[2,3-D]PYRIMIDIN-6-ONE HYDROCHLORIDE]	160	–
Cc1nc[nH]c1C=C1C(=O)Nc2ncnc(N3CCN(C)CC3)c21 [Formula 11]	> 20000	–
O=C1Nc2ncnc(Nc3ccc4c(ccn4Cc4ccccc4)c3)c2C1=Cc1ccc(C(=O)NCCN2CCOCC2)[nH]1 [Formula 12, 5-[4-(1-BENZYL-1H-INDOL-5-YLAMINO)-6-OXO-6,7-DIHYDRO-PYRROLO[2,3-D]PYRIMIDIN-5-YLIDENEMETHYL]-1H-PYRROLE-2-CARBOXYLIC ACID (2-MORPHOLIN-4-YL-ETHYL)-AMIDE HYDROCHLORIDE]	4	–
O=C1Nc2ncnc(N3CCOCC3)c2C1=Cc1ccc(C(=O)NCCN2CCOCC2)[nH]1 [Formula 13, 5-(4-MORPHOLIN-4-YL-6-OXO-6,7-DIHYDRO-PYRROLO[2,3-D]PYRIMIDIN-5-YLIDENEMETHYL)-1H-PYRROLE-2-CARBOXYLIC ACID (2-MORPHOLIN-4-YL-ETHYL)-AMIDE]	19100	–
C#Cc1cccc(Nc2ncnc3c2C(=Cc2ccc(C(=O)NCCN4CCOCC4)[nH]2)C(=O)N3)c1 [Formula 16, 5-[4-(3-ETHYNYL-PHENYLAMINO)-6-OXO-6,7-DIHYDRO-PYRROLO[2,3-D]PYRIMIDIN-5-YLIDENEMETHYL]-1H-PYRROLE-2-CARBOXYLIC ACID (2-MORPHOLIN-4-YL-ETHYL)-AMIDE HYDROCHLORIDE]	100	–
C#Cc1cccc(Nc2ncnc3c2C(=Cc2[nH]c(C)c(CCCN4CCOCC4)c2C)C(=O)N3)c1 [Formula 18]	180	–
CC(C)c1cc(CCC(=O)O)c(/C=C2\C(=O)Nc3ncnc(Nc4ccc(F)c(Cl)c4)c32)[nH]1 [Formula 27]	150	–
Cc1c(C(=O)N2CCOCC2)c[nH]c1/C=C1\C(=O)Nc2ncnc(Nc3ccc(F)c(Cl)c3)c21 [Formula 31]	210	–
Cc1cc(C(=O)N2CCOCC2)[nH]c1/C=C1\C(=O)N(C)c2ncnc(Nc3ccc(F)c(Cl)c3)c21 [Formula 34]	> 20000	–
Cc1cc(C(=O)N2CCN(C)CC2)[nH]c1/C=C1\C(=O)N(C)c2ncnc(Nc3ccc(F)c(Cl)c3)c21 [Formula 36]	17400	–

Reference: patent US6908930B2, “4-substituted 7-AZA-indolin-2-ones and their use as protein kinase inhibitors” (Sugen, Inc., priority 1999, dated 2005)
